From patent US20090018146A1, “Combination Therapy with Triterpenoid Compounds and Proteasome Inhibitors” (Research Development Corporation, priority 2005, published 2009)
Residues, ends and D or L forms follow the SMILES beside them. *: point of attachment. Cbz = O=C(OCc1ccccc1)*; CH2F = FC*

Key:
20S activity = conditions: general statement on proteasome inhibitors; cited from earlier work
S. pombe cells = experiment: Detection of ubiquitinated proteins in S. pombe; assay type: cell-based, Schizosaccharomyces pombe; conditions: wild type S. pombe, 20 μg/ml avicin G, after 90 minutes (1.5 hours), immunoblot
Experimental: (§1) Standard yeast culture media and genetic methods were used (Alfa et al., 1993; Rose et al., 1990). S. pombe cultures were grown in either YEAU (0.5% yeast extract, 3% dextrose, 75 […]) or synthetic minimal medium (EMM) with appropriate supplements.
S. pombe cultures were lysed with glass beads in PEM buffer (100 mM PIPES, 1 mM EGTA, 1 mM MgSO4, pH 6.9) containing 4 mM benzamide, 10 μM E64, 50 μM leupeptin, 1 μM pepstatin, 1 mM phenylmethanesulfonyl fluoride, and 2 μg/ml aprotinin essentially as described in (Yen et al., 2003). Equal amounts of protein were resolved by SDS-PAGE and subsequent immunoblotting using anti-ubiquitin mouse monoclonal antibody (Stressgen Biotechnologies).

S. pombe = experiment: Effects of avicin G on the growth of S. pombe wild type and mutants; assay type: cell-based, Schizosaccharomyces pombe; conditions: for sensitivity to avicin G relative to wild-type: 26° C.
Experimental: FIGS. 10A and 10B: Effects of Avicin G on the Growth of S. pombe Mutants. Wild type, mts2-1 (mts2), mts3-1 (mts3), and nuc2-663 cells were spread on YEAU plates. Avicin G (25 jug) was then spotted onto the respective cell lawns and the plates were incubated at 26° C. for 5 days. The relative avicin G sensitivity of each strain, based on measurements of areas of avicin G-induced growth inhibition, was then determined, with wild-type cells being normalized to a value of 1 (FIG. 10A).
as §1

Hsp70 = experiment: Western blot of Hsp70 protein in avicin D treated Jurkat cells; assay type: cell-based, human
Experimental: (§2) Jurkat T cells (2 μg/ml=1 μM), U-937 (4 μg/ml), MJ (5 μg/ml), and HH cells (2.5 μg/ml) were treated for 0-24 hours with the indicated concentrations of avicin D. PBLs from the patients or normal blood were treated with 5 μg/ml of avicin D for 24 hours.
(§3) At the end of treatments, cells were harvested, washed with sterile ice-cold PBS and cytoplasmic extracts (CE) were prepared by lysing the cells in CE buffer containing 10 mM Hepes-Cl pH 7.5, 10 mM KCl, 0.1 mM EDTA, 0.1 mM EGTA, 0.3% NP40, and a protease inhibitor cocktail (Sigma). After centrifugation and separating the supernatant (CE proteins), the pellet was resuspended in a buffer containing 20 mM Hepes-Cl, 400 mM NaCl, 1 mM EDTA, 1 mM EGTA, and protease inhibitor cocktail (Sigma). The nuclear protein extraction proceeded for 30 min. on ice followed by centrifugation at 14,000 rpm for 5 min at 4° C. The clear supernatant containing nuclear proteins (NE) was collected, glycerol (10%) was added, and proteins stored at −80° C. until use.
(§4) SDS-PAGE and immunoblot procedures were essentially performed as described (Sambrook, 1989). Briefly, cytoplasmic and nuclear proteins were resolved on SDS-PAGE, blotted on PVDF membranes (BioRad) and probed with various antibodies followed with anti-rabbit, anti-mouse antibody conjugated to horseradish peroxidase (HRP) from BioRad or HRP conjugated anti-goat antibody from Santa Cruz Biotechnology, corresponding to the primary antibody. Protein bands were detected using the ECL chemiluminescence kit from Amersham as per the manufacturer's protocol.
(§5) Quantitation of proteins (western) and transcripts (RT-PCR) was performed using the NIH 1.61 image software.

his-ub-Hsp70 = experiment: In vivo ubiquitination of Hsp70 in his-ub transfected Jurkat cells; assay type: cell-based, human; conditions: lactacystin 10 μM 30 minutes pretreatment, then avicin D 4 hours
Experimental: Jurkat T-cells were transfected with a plasmid pDG268 that expresses a fusion protein of histidine-tagged human ubiquitin and enhanced GFP. Transfection was performed using μm ax a Biosystems kit and their protocol. After 24 hours of transfection, cells were harvested, resuspended at a density of 10^6 cells/ml before treatment with lactacystin or avicin D.
Jurkat T cells transfected with the his-ub plasmid construct were treated with lactacystin (10 μM) or with avicin D (1 μM) for 4 hours. Cells were harvested and CE prepared as described above. […] The affinity purified histidine-tagged proteins were separated on SDS-PAGE and analyzed on western blots for ub-Hsp70 proteins.

Hsp90 = experiment: Western blot of Hsp90 protein in avicin D treated Jurkat cells; assay type: cell-based, human; conditions: lactacystin 10 μM 30 minutes, then avicin D 4 hours
Experimental: as §2, §3
SDS-PAGE and immunoblot procedures were essentially performed as described (Sambrook, 1989). […] Protein bands were detected using the ECL chemiluminescence kit from Amersham as per the manufacturer's protocol.
as §5

XIAP = experiment: Western blot of XIAP protein in Jurkat cells; assay type: cell-based, human
Experimental: as §2, §3, §4, §5

## CC(C)C[C@H](NC(=O)[C@H](Cc1ccccc1)NC(=O)c1cnccn1)B(O)O [PS341]
20S activity
  suppression of 20S activity: suppress 20S activity completely

## C=C[C@](C)(O)CC/C=C(\C)C(=O)O[C@H]1[C@H](O)[C@@H](O)[C@H](O[C@@](C)(C=C)CC/C=C(\CO)C(=O)O[C@H]2C[C@]3(C(=O)O[C@@H]4O[C@H](CO)[C@@H](O)[C@H](O)[C@H]4O[C@@H]4O[C@@H](C)[C@H](O[C@@H]5O[C@@H](CO)[C@H](O)[C@H]5O)[C@@H](O[C@@H]5O[C@H](CO)[C@@H](O)[C@H](O)[C@H]5O)[C@H]4O)[C@H](O)C[C@]4(C)C(=CC[C@@H]5[C@@]6(C)CC[C@H](O[C@@H]7O[C@H](CO[C@@H]8O[C@H](C)[C@H](O)[C@H](O)[C@H]8O[C@@H]8OC[C@@H](O)[C@H](O)[C@H]8O)[C@@H](O)[C@H](O)[C@H]7NC(C)=O)C(C)(C)[C@@H]6CC[C@]54C)[C@@H]3CC2(C)C)O[C@@H]1C [avicin G]
S. pombe cells
  levels of ubiquitinated proteins: increase in the levels of ubiquitinated proteins
S. pombe; mts2-1 26S proteasome mutant, 25 μg spotted, 5 days
  sensitivity to avicin G relative to wild-type: only slightly increased
S. pombe; mts3-1 26S proteasome mutant, 25 μg spotted, 5 days
  sensitivity to avicin G relative to wild-type: only slightly increased
S. pombe; nuc2-663 APC mutant
  sensitivity to avicin G relative to wild-type: markedly resistant
S. pombe; nuc2-663 cells, 5 days at 26° C.
  growth on YEAU containing 16 μg/ml avicin G: grew

## CC(=O)N[C@@H](CSC(=O)[C@]1([C@@H](O)C(C)C)NC(=O)[C@H](C)[C@@H]1O)C(=O)O [lactacystin, reference compound]
Hsp70; lactacystin 10 μM 30 minutes, then avicin D 4 hours
  effect of lactacystin pretreatment on the avicin-induced decrease in Hsp70 protein: totally reversed
his-ub-Hsp70
  effect of lactacystin on the avicin-induced decrease of his-ub-Hsp70: sensitive to lactacystin
Hsp90
  effect of lactacystin pretreatment on the avicin-induced decrease in Hsp90 protein: totally reversed
XIAP; lactacystin 30 minutes prior to avicin D 4 hours
  effect of lactacystin on the avicin induced XIAP decrease: blocked

## COC(=O)C[C@H](NC(=O)[C@H](C)NC(=O)[C@@H](NC(=O)OCc1ccccc1)C(C)C)C(=O)CF [zVAD-fmk, reference compound] (Cbz-Val-Ala-Asp(OMe)-CH2F)
Hsp70; zVAD-FMK 50 μM 30 minutes prior to avicin D 1 μM 4 hours
  effect of caspase inhibition on the avicin-induced degradation of Hsp70: no significant effect
XIAP; zVAD-FMK 50 μM prior to avicin D 4 hours
  block of avicin-induced XIAP degradation: −22%
